We go through 2 molecules from PMC8956739, “A synthetic lipopeptide targeting top-priority multidrug-resistant Gram-negative pathogens” (Nature Communications, 2022).

The nature of series [1]: Plasma pharmacokinetics in mice. It is filed as in vivo, mouse. How it is done:
The plasma pharmacokinetic profiles of F365 and polymyxin B were assessed in Swiss mice (female, 7-week-old, 22–28 g) after a single intraperitoneal dose (5 mg/kg, n = 3). Blood samples were collected at various time points over 24 h post dosing for analysis. The plasma pharmacokinetic profiles of F365 (n = 5) and polymyxin B (1 mg/kg, n = 11) in Sprague-Dawley rats (male, 10-week-old, 280 to 330 g) were assessed after intravenous administration (1 min) of F365 and polymyxin B via an indwelling jugular vein cannula. Blood samples (~0.3 mL) were collected via an indwelling carotid artery cannula at various time points over 24 h post dosing. Urine samples were collected at 4 °C using a metabolic cage during the period between 0 and 24 h post dosing. Concentrations of F365 and polymyxin B in plasma and urine samples were determined using LC-MS/MS and pharmacokinetic analysis was conducted using WinNonlin (Pharsight Corp., Mountain View, CA). The ELF pharmacokinetic profiles of F365 and polymyxin B was determined in neutropenic Swiss mice (female, 7-week-old, 22–28 g) after subcutaneous injection (40 mg/kg, n = 3). Bronchoalveolar lavage (BAL) samples were collected at various time points over 24 h post dosing from the cannulated trachea using Milli-Q water as BAL washing media. The average volume of ELF in mice was calculated by the ratio of urea concentrations in plasma and BAL samples. Concentrations of F365 and polymyxin B in plasma and BAL were analyzed by LC-MS/MS. Pharmacokinetic parameters were calculated using a non-compartment model with WinNonlin. For mouse, rat, and human plasma protein binding of F365 and polymyxin B, pooled plasma samples (n = 3) from each species were spiked with F365 or polymyxin B. The spiked plasma samples were subjected to ultrafiltration and the corresponding filtrates were analyzed by LC-MS/MS to determine the concentration of F365 and polymyxin B and the protein binding in each species.

The subject of series [2] is P. aeruginosa PAM1723 (overexpresses MexAB-OprM). Type of series: cell-based, Pseudomonas aeruginosa. The conditions noted are these: Leu-Nap hydrolysis. The procedure: (§1) Bacterial strains were seeded in 50 mL of Luria-Bertani (LB) broth at OD600 0.05 and grown at 37 °C for 3-4 h until an OD600 of 0.6–0.8 was achieved. Bacterial cells were washed twice with 25 mL of buffer (50 mM sodium phosphate, 0.5% glucose, pH 7, with or without 1 mM Mg^2+), resuspended in 10 mL of the buffer, and then adjusted to an OD600 of 0.4. […] Bacterial suspension (50 μL, OD600 0.4) in buffer was added to the lipopeptide solutions and the rate of substrate hydrolysis was measured at 490 nm.
(§2) Activity of F365 and polymyxin B in the efflux inhibition assay.
(§3) One of the consequences of disruption/permeabilization of the cytoplasmic membrane by polymyxins is the dissipation of the proton gradient across the cytoplasmic membrane. […]
(§4) these compounds are expected to inhibit proton-dependent transport activity across the cytoplasmic membrane including efflux. Efflux activity and its inhibition by F365 was assessed by examining the rates of hydrolysis of a fluorogenic substrate of efflux pumps, Leu-Nap, by intact cells of P. aeruginosa. For these experiments we used two strains of P. aeruginosa, PAM1723 and PAM1626. PAM1723 overexpresses the efflux pump MexAB-OprM and PAM1626 lacks this pump as well as several other pumps that extrude Leu-Nap. […] The rate of production of β-naphthylamine (recorded as an increase in fluorescence) is limited by the rate of entry of Leu-Nap into the cells. […]

The test system of a further series is P. aeruginosa PAM2035. Type of series: cell-based, Pseudomonas aeruginosa. The conditions noted are these: nitrocefin hydrolysis, without Mg2+. How it is done: as §1
Activity of F365 and polymyxin B in the outer membrane permeabilization assay.
The outer and inner membranes of gram-negative bacteria are the sites of interaction and action of polymyxin antibiotics, respectively. These polycationic compounds bind to phosphate residues of lipid A and displace the magnesium and calcium ions that cross-bridge adjacent lipid A molecules thereby stabilizing the outer membrane. […]
as the main mechanism of action by polymyxin B and colistin. The outer membrane-permeabilizing effect of F365 at a wide range of concentrations was assessed by examining the rates of hydrolysis of a chromogenic β-lactam, nitrocefin, by intact cells of Pseudomonas aeruginosa. […]

Another series has as its system P. aeruginosa PAM1626. The series can be described thus: Efflux inhibition assay (Leu-Nap hydrolysis), efflux-deficient strain. Type of series: cell-based, Pseudomonas aeruginosa. How it is done:
as §1, §2, §3, §4

In series [3] the test system is P. aeruginosa FADDI-PA102. The series is described as follows: MIC, polymyxin-resistant isolate. Type of series: cell-based, Pseudomonas aeruginosa. The conditions noted are these: carbapenem-resistant. How it is done:
MICs were determined in cation-adjusted Mueller–Hinton broth (CaMHB) by the broth micro-dilution method against ATCC strains and clinical isolates. MICs in the presence of Survanta® were determined as described above against P. aeruginosa ATCC 27853. In the 100 μL of fresh CaMHB containing polymyxins, 10% Survanta® (v/v, 2.5 mg/mL phospholipids) was added. MICs in the presence and absence of Survanta® were compared to determine the effect of binding to lung surfactant on the antibacterial activity of polymyxins.

The AUC(0-inf) is total exposure, with the tail of the curve extrapolated. Lower therefore signals less exposure. By half-life is commonly meant how long it takes for the measured level to halve. The low end stands for fast loss, the high end for slow loss.

Values after ≈ are worked out from the molar mass of the structure shown. Residues, ends and D or L forms follow the SMILES beside them.

In the case of `CC[C@@H]1NC(=O)[C@@H](CC(C)C)NC(=O)[C@H](CCN)NC(=O)[C@@H](NC(=O)[C@H](CN)NC(=O)[C@@H](NC(=O)[C@H](CCN)NC(=O)c2ccc(Cl)cc2Cl)[C@@H](C)O)CCNC(=O)[C@H]([C@@H](C)O)NC(=O)[C@H](CCN)NC(=O)[C@H](CCN)NC1=O` [Lipopeptide F365] (HELM PEPTIDE1{[O=C(c1ccc(Cl)cc1Cl)[*:2]].[Dab].T.[NC[C@H](N[*:1])C(=O)[*:2]].[Dab].[Dab].[dL].[Abu].[Dab].[Dab].T}$PEPTIDE1,PEPTIDE1,5:R3-11:R2$$$V2.0), the “Plasma concentration, single mouse” value in series [1] (5 mg/kg IP, 0.28 h) is 6.79. In addition, in series [1] (mouse, in vivo, ip, 5 mg/kg), the AUC(0-inf) came out at 7920 ng·h/mL and the half-life is 18 min. Further, in series [2], the “IC50, inhibition of efflux activity” value was found to be 4.2 ± 1.5 µg/mL. Also, in the series on P. aeruginosa PAM2035, the “IC50 for membrane permeabilization” value worked out at 0.73 ± 0.07 µg/mL. Also, the “effect on the rate of Leu-Nap hydrolysis” value in the series on P. aeruginosa PAM1626 is “no effect”. Further, in series [3], the “MIC P. aeruginosa FADDI-PA102” value worked out at 4 µg/mL (≈ 3.45 µM).

The molecule Polymyxin B [reference compound] had a half-life in series [1] (mouse, in vivo, ip, 5 mg/kg) of 84 min. Moreover, the “IC50, inhibition of efflux activity” value in series [2] was found to be 7.6 ± 1.4 µg/mL. For the same molecule, the “IC50 for membrane permeabilization” value with P. aeruginosa PAM2035 came out at 1.15 ± 0.22 µg/mL. Also, the “effect on the rate of Leu-Nap hydrolysis” value with P. aeruginosa PAM1626 is reported as “no effect”. In series [3], the “MIC P. aeruginosa FADDI-PA102” value stood at 4 µg/mL.
